Reference: patent EP4752152A1, “STEROID COMPOUND, AND PREPARATION METHOD THEREFOR AND USE THEREOF” (Cholesgen (Shanghai) Co.Ltd., priority 2023, dated 2025)

System: SREBP pathway
Assay: SREBP luciferase reporter gene system (SRE-luciferase assay)
Format: cell-based, human
Details: Huh-7/SRE-luc cells, sterol-deficient medium, 0.01-10 µM
Method in brief: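 Huh-7 cells stably carrying LDLR promoter-luciferase plus GFP were treated 16 h in sterol-deficient medium (5% lipoprotein-deficient serum, 2 µM lovastatin, 10 µM mevalonic acid) at 0.01–10 µM. Luciferase/GFP ratio measured as pathway activity; inhibition versus DMSO fitted to a four-parameter model for IC50.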

SMILES | IC50 (Homo sapiens, Huh-7, 16 h) [µM] | IC50 (16 hours) [µM]
C[C@H](CCCC(O)c1cccc2nnn(C)c12)[C@H]1CC[C@H]2[C@H]3[C@H](CC[C@]12C)[C@@]1(C)CC[C@H](O)[C@H](O)[C@@H]1CC3(F)F (stereo partly drawn) [Compound 271, (1R,3aS,3bS,5aR,6R,7 S,9aR,9bS,11aR)-4,4-Difluoro-1-[(2R)-6-hydroxy-6-(3-methylbenzo[d][1,2,3]triazol-4-yl)hexan-2-yl]-9a,11a-dimethylhexadecahyd ro-1H-cyclopenta[1,2-a]phenanthrene-6,7-diol] | 0.207 | –
C[C@H](CCCC(O)c1ccccc1F)[C@H]1CC[C@H]2C3=C(F)C[C@H]4[C@@H](O)[C@@H](O)CC[C@]4(C)[C@H]3CC[C@]12C (stereo partly drawn) [Compound 4, (1R,3aR,5aR,6R,7S,9aR,9bR,11aR)-4-fluoro-1-[(2R)-6-(2-fluorophenyl)-6-hydroxyhexan-2-yl]-9a,11a-dimethyl-2,3,3a,5,5a,6,7,8,9,9a,9b,10,11,11a-tetradecahydro-1H-cyclopenta[1,2-a]phenanthrene-6,7-diol] | 0.09 | –
COc1cncc(F)c1C(O)CCC[C@@H](C)[C@H]1CC[C@H]2[C@H]3[C@H](CC[C@]12C)[C@@]1(C)CC[C@H](O)[C@H](O)[C@@H]1CC3(F)F (single isomer, unassigned) [Compound 251, (1R,3aS,3bS,5aR,6R,7S,9aR,9bS,11aR)-4,4-difluoro-1-[(2R,6S)-6-(3-fluoro-5-methoxypyridin-4-yl)-6-hydroxyhexan-2-yl]-9a,11a-dimethylhexadecahydro-1H-cyclopenta[1,2-a]phenanthrene-6,7-diol or (1R,3aS,3bS,5aR,6R,7S,9aR,9bS,11aR)-4,4-difluoro-1-[(2R,6R)-6-(3-fluoro-5-methoxypyridin-4-yl)-6-hydroxyhexan-2-yl]-9a,11a-dimethylhexadecahydro-1H-cyclopenta[1,2-a]phenanthrene-6,7-diol] | 0.042 | –
COc1nc(F)ccc1C(O)CC[C@@H](C)[C@H]1CC[C@H]2[C@H]3[C@H](CC[C@]12C)[C@@]1(C)CC[C@H](O)[C@H](O)[C@@H]1CC3(F)F (stereo partly drawn) [Compound 341, (1R,3aS,3bS,5aR,6R,7S,9aR,9bS,11aR)-4,4-difluoro-1-[(2R)-5-(6-fluoro-2-methoxypyridin-3-yl)-5-hydroxypentan-2-yl]-9a,11a-dimethylhexadecahydro-1H-cyclopenta[1,2-a]phenanthrene-6,7-diol] | 0.206 | –
COc1ccc(F)c(C(O)CCC[C@@H](C)[C@H]2CC[C@H]3[C@H]4[C@H](CC[C@]23C)[C@@]2(C)CC[C@H](O)[C@H](O)[C@@H]2CC4(F)F)c1 (single isomer, unassigned) [Compound 166, (1R,3aS,3bS,5aR,5aR,6R,7S,9aR,9bS,11aR) -4,4-difluoro-1-[(2R,6S)-6-(2-fluoro-5-methoxyphenyl)-6-hydroxyhexan-2-yl]-9a,11a-dimethylhexadecahydro-1H-cyclopenta[1,2-a]phenanthrene-6,7-diol or (1R,3aS,3bS,5aR,6R,7S,9aR,9bS,11aR)-4,4-difluoro-1-[(2R,6R)-6-(2-fluoro-5-methoxyphenyl)-6-hydroxyhexan-2-yl]-9a,11a-dimethylhexadecahydro-1H-cyclopenta[1,2-a]phenanthrene-6,7-diol] | – | 0.138
C[C@H](CCCC(O)c1cccc2c1nnn2C)[C@H]1CC[C@H]2[C@H]3[C@H](CC[C@]12C)[C@@]1(C)CC[C@H](O)[C@H](O)[C@@H]1CC3(F)F (single isomer, unassigned) [Compound 291, (1R,3aS,3bS,5aR,6R,7S,9aR,9bS,11aR)-4,4-difluoro-1-[(2R,6R)-6-hydroxy-6-(1-methylbenzo[d][1,2,3]triazol-4-yl)hexan-2-yl]-9a,11a-dimethylhexadecahydro-1H-cyclopenta[1,2-a]phenanthrene-6,7-diol or (1R,3aS,3bS,5aR,6R,7S,9aR,9bS,11aR)-4,4-difluoro-1-[(2R,6S)-6-hydroxy-6-(1-methylbenzo[d][1,2,3]triazol-4-yl)hexan-2-yl]-9a,11a-dimethylhexadecahydro-1H-cyclopenta[1,2-a]phenanthrene-6,7-diol] | – | 0.141
C[C@H](CCCC(O)c1ccc(F)nc1OCc1ccccc1)[C@H]1CC[C@H]2[C@H]3[C@H](CC[C@]12C)[C@@]1(C)CC[C@H](O)[C@H](O)[C@@H]1CC3(F)F (stereo partly drawn) [Compound 281, (1R,3aS,3bS,5aR,6R,7S,9aR,9bS,11aR)-1-[(2R)-6-[2-(benzyloxy)-6-fluoropyridin-3-yl]-6-hydroxyhexan-2-yl]-4,4-difluoro-9a,11a-dimethylhexadecahydro-1H-cyclopenta[1,2-a]phenanthrene-6,7-diol] | 0.479 | –
C[C@H](CCCC(O)c1c2ccccc2nn1C)[C@H]1CC[C@H]2[C@H]3[C@H](CC[C@]12C)[C@@]1(C)CC[C@H](O)[C@H](O)[C@@H]1CC3(F)F (stereo partly drawn) [Compound 325, (1R,3aS,3bS,5aR,6R,7 S,9aR,9bS,11aR)-4,4-Difluoro-1-[(2R)-6-hydroxy-6-(2-methylindazol-3-yl)hexan-2-yl]-9a,11a-dimethylhexadecahydro-1H-cyclopenta[1,2-a]phenanthrene-6,7-diol] | 0.148 | –
C[C@H](CCCC(O)c1ccccc1F)[C@H]1CC[C@H]2[C@H]3[C@H](CC[C@]12C)[C@@]1(C)CC[C@H](O)CC1CC3(F)F (stereo partly drawn) [Compound 74, (1R,3aS,3bR,7S,9aS,9bS,11aR)-4,4-difluoro-1-[(2R)-6-(2-fluorophenyl)-6-hydroxyhexan-2-yl]-9a,11a-dimethylhexadecahydro-1H-cyclopenta[1,2-a]phenanthren-7-ol] | 0.68 | –
C[C@H](CCCC(O)c1ccccc1OC(F)(F)F)[C@H]1CC[C@H]2C3=C(F)C[C@H]4[C@@H](O)[C@@H](O)CC[C@]4(C)[C@H]3CC[C@]12C (stereo partly drawn) [Compound 2, (1R,3aR,5aR,6R,7S,9aR,9bR,11aR)-4-fluoro-1-[(2R)-6-hydroxy-6-{2-[(trifluoromethyl)oxy]phenyl}hexan-2-yl]-9a,11a-dimethyl-2,3,3a,5,5a,6,7,8,9,9a,9b,10,11,11a-tetradecahydro-1H-cyclopenta[1,2-a]phenanthrene-6,7-diol] | 0.45 | –
C[C@H](CCCC(O)c1cccc2nn[nH]c12)[C@H]1CC[C@H]2[C@H]3[C@H](CC[C@]12C)[C@@]1(C)CC[C@H](O)[C@H](O)[C@@H]1CC3(F)F (single isomer, unassigned) [Compound 294, (1R,3aS,3bS,5aR,6R,7S,9aR,9bS,11aR)-4,4-difluoro-1-[(2R,6S)-6-hydroxy-6-(3H-benzo[d][1,2,3]triazol-4-yl)hexan-2-yl]-9a,11a-dimethylhexadecahydro-1H-cyclopenta[1,2-a]phenanthrene-6,7-diol or (1R,3aS,3bS,5aR,6R,7S,9aR,9bS,11aR)-4,4-difluoro-1-[(2R,6R)-6-hydroxy-6-(3H-benzo[d][1,2,3]triazol-4-yl)hexan-2-yl]-9a,11a-dimethylhexadecahydro-1H-cyclopenta[1,2-a]phenanthrene-6,7-diol] | 0.424 | –
COc1cccc(F)c1[C@@H](F)CCC[C@@H](C)[C@H]1CC[C@H]2[C@H]3[C@H](CC[C@]12C)[C@@]1(C)CC[C@H](O)[C@H](O)[C@@H]1CC3(F)F (single isomer, unassigned) [Compound 215] | 3.57 | –
COc1ncncc1C(O)CCC[C@@H](C)[C@H]1CC[C@H]2[C@H]3[C@H](CC[C@]12C)[C@@]1(C)CC[C@H](O)[C@H](O)[C@@H]1CC3(F)F (stereo partly drawn) [Compound 152, (1R,3aS,3bS,5aR,6R,7S,9aR,9bS,11aR)-4,4-difluoro-1-[(2R)-6-hydroxy-6-(4-methoxypyrimidin-5-yl)hexan-2-yl]-9a,11a-dimethylhexadecahydro-1H-cyclopenta[1,2-a]phenanthrene-6,7-diol] | 0.14 | –
C[C@H](CCN(C)C(=O)c1ccccc1F)[C@H]1CC[C@H]2[C@@H]3CC[C@@]4(C)[C@@H](O)[C@@H](O)CC[C@]4(C)[C@H]3CC[C@]12C [Compound 15A, 2-fluoro-N-[(3R)-3-[(1R,3aS,3bS,5aR,6R,7S,9aR,9bS,11aR)-6,7-dihydroxy-5a,9a,11a-trimethylhexadecahydro-1H-cyclopenta[1,2-a]phenanthren-1-yl]butyl]-N-methylbenzamide] | 0.37 | –
C[C@H](CCC[C@H](O)c1ccccn1)[C@H]1CC[C@H]2[C@H]3[C@H](CC[C@]12C)[C@@]1(C)CC[C@H](O)[C@H](O)[C@@H]1CC3(F)F [Compound 91, (1R,3aS,3bS,5aR,6R,7S,9aR,9bS,11aR)-4,4-difluoro-1-[(2R,6S)-6-hydroxy-6-(pyridin-2-yl)hexan-2-yl]-9a,11a-dimethylhexadecahydro-1H-cyclopenta[1,2-a]phenanthrene-6,7-diol] | 0.378 | –
COc1ccnc(F)c1C(O)CCC[C@@H](C)[C@H]1CC[C@H]2C3=C(F)C[C@H]4[C@@H](O)[C@@H](O)CC[C@]4(C)[C@H]3CC[C@]12C (stereo partly drawn) [Compound 150, (1R,3aR,5aR,6R,7S,9aR,9bR,11aR)-4-fluoro-1-[(2R)-6-(2-fluoro-4-methoxypyridin-3-yl)-6-hydroxyhexan-2-yl]-9a,11a-dimethyl-2,3,3a,5,5a,6,7,8,9,9a,9b,10,11,11a-tetradecahydro-1H-cyclopenta[1,2-a]phenanthrene-6,7-diol] | 0.19 | –
C[C@H](CCC[C@H](O)c1nc2cnccc2n1C)[C@H]1CC[C@H]2[C@H]3[C@H](CC[C@]12C)[C@@]1(C)CC[C@H](O)[C@H](O)[C@@H]1CC3(F)F [Compound 318, (1R,3aS,3bS,5aR,6R,7S,9aR,9bS,11aR)-4,4-difluoro-1-[(2R,6S)-6-hydroxy-6-(1-methylimidazo[5,4-c]pyridin-2-yl)hexan-2-yl]-9a,11a-dimethylhexadecahydro-1H-cyclopenta[1,2-a]phenanthrene-6,7-diol] | 0.296 | –
COc1nc(F)ccc1[C@@](C)(O)CCC[C@@H](C)[C@H]1CC[C@H]2[C@H]3[C@H](CC[C@]12C)[C@@]1(C)CC[C@H](O)[C@H](O)[C@@H]1CC3(F)F [Compound 309, (1R,3aS,3bS,5aR,6R,7S,9aR,9bS,11aR)-4,4-difluoro-1-[(2R,6S)-6-(6-fluoro-2-methoxypyridin-3-yl)-6-hydroxyheptan-2-yl]-9a,11a-dimethylhexadecahydro-1H-cyclopenta[1,2-a]phenanthrene-6,7-diol] | 0.143 | –
